Where two headings read alike, the source gives them in different places. Some results are limits rather than exact numbers.

Assay type in all cases: cell-based
The subject of one test is LNCaP/AR cells. Kind of test: Inhibition of the proliferation of LNCap/AR cells (CCK-8). The note with it: LNCaP/AR cells, 6 days culture, CCK-8, read-out: LNCap/AR IC50. The essentials: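 LNCaP/AR cells (1000/well, RPMI1640 + 10% FBS) were treated for 6 days at 37 °C with 9-point 3-fold dilutions from 10 μM final, 0.1% DMSO, in duplicate. Viability was read by CCK-8 absorbance at 450 nm after 1 h, and IC50 came from a dose-response-inhibition fit.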

A further test has as its system 22RV1 cells. Kind of test: Inhibition of the proliferation of drug-resistant prostate cancer cell 22RV1 (CCK-8). The note with it: 22RV1 cells (enzalutamide-resistant), same method. In a few lines:
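22RV1 cells, 1000/well in RPMI1640 with 10% FBS, treated in duplicate with 9-point 3-fold dilutions from 10 μM (0.1% DMSO final). After 6 days at 37 °C, CCK-8 added for 1 h and OD450 read. IC50 from dose-response inhibition fit.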

The test system of another test is Androgen receptor (AR). Kind of test: Down-regulation/degradation of AR determined by Western blot in CWR22RV1 cells. The note with it: concentration 100 nM, 24 h. As for the experimental part: (§1) The Down-Regulation on the Protein Expression of Androgen Receptors AR and Brd4 Determined by Western Blot CWR22RV1 cells (National Collection of Authenticated Cell Cultures. TCHu100) FBS (Gibco, Cat. No. 10099-141) 0.01M PBS (Biosharp. Cat. No. 162262) RIPM1640 (Hyclone, Cat. No. 308090.01) Penicillin-Streptomycin (Hyclone. Cat. No. SV30010) DMSO (Sigma. Cat. No. D5879) Centrifuge tube, 15 ml (Excell Bio. Cat. No. CS015-0001) Cell culture plate (Excell Bio. Cat. No. CS016-0128) 6-well cell culture cluster (Corning, Cat. No. 3516) RIPA lysate buffer (Beyotime, Cat. No. P0013B) Protein loading buffer (Beyotime, Cat. No. P0015L) CA protein assay kit (Beyotime, Cat. No. P0012) SDS-PAGE gel preparation kit (Chengdu Baihe Technology Co., Ltd. Cat. No. PG112) Anti-β-tubulin mouse mAb (Zen Bioscience, Cat. No. 200608) Androgen Receptor ([…]) XP Rabbit mAb (CST. Cat. No. 5153) Anti-cMyc(D3N8F) Rabbit mAb (CST. Cat. No. 13987) Anti-BRD4(E2A7X) rabbit mAb (CST, Cat. No. 13440) Peroxidase Affinipure(HRP) Goat Anti-Mouse IgG (Zen Bioscience, Cat. No. 511103) Peroxidase Affinipure(HRP) Goat Anti-Rabbit IgG (Zen Bioscience, Cat. No. 511203) TBST (Biosharp. Cat. No. B[…]) ECL chemiluminescence kit (Beyotime, Cat. No. […]1 cells were subcultured in cell culture media, and then the cells in good growth condition were seeded in a 6-well plate at 2 ml/well (1×10^6 cells/well), and cultured overnight in a 37° C., 5% CO2 cell incubator. 2) The drug was prepared as a 10 mM stock solution with dimethyl sulfoxide (DMSO). […] The plate was gently tapped to thoroughly mix. In addition, the experiment included negative control wells (containing equal amount of DMSO) and positive control wells. 3) After culturing 24 hi, the cells were lysed with RIPA cell lysate, and the protein was extracted. […] The first antibody (Androgen Receptor ([…]) XP Rabbit mAb. Anti-cMyc(D3N8F) Rabbit mAb, Anti-BRD4(E2A7X) rabbit mAb and Anti-β-Tubulin Mouse mAb) was added and incubated overnight at 4° C. The membrane was rinsed with TBST solution three times, 10 min for each time. The secondary antibody (horseradish peroxidase labeled goat anti mouse IgG) was added and incubated at room temperature for 2 h, and then the membrane was washed with TBST solution three times, 10 m for each time. Finally. ECL chemiluminescence solution was added, and then photos were taken with automatic chemiluminescence instrument to collect pictures for analysis.
(In general: In western blotting, separated proteins are transferred to a membrane and probed.)

The target of the next test is T1, BRD4 (Homo sapiens, UniProt O60885).
T1 construct: CWR22RV1 cells were subcultured in cell culture media; endogenous in cells; host or cells: CWR22RV1 cells
Kind of test: Down-regulation/degradation of BRD4 determined by Western blot in CWR22RV1 cells. The note with it: concentration 100 nM, 24 h. How it is done: as §1

In the case of `Cc1ccc(-c2c(C)noc2C)cc1N(CCCOC1CN(c2cc3c(cc2F)C(=O)N(C2CCC(=O)NC2=O)C3=O)C1)c1ccc(C2(C#N)CC2)cc1` (stereo not shown) [Compound 120, 1-(4-((5-(3,5-dimethylisoxazol-4-yl)-2-methylphenyl)(3-((1-(2-(2,6-dioxopiperidin-3-yl)-6-fluoro-1,3-dioxoisoindol-5-yl)azetidin-3-yl)oxy)propyl)amino)phenyl)cyclopropane-1-carbonitrile], the IC50 with LNCaP/AR cells (144 h) is 101 to 500 nM; in the test on 22RV1 cells (Homo sapiens) it was under 100 nM. The “AR (% degradation)” value with Androgen receptor (AR) is listed as “D (<20% of the target protein was degraded)”. The “BRD4 (% degradation)” value on BRD4 is “B (79%-50% of the target protein was degraded)”.

For the compound `Cc1ccc(-c2c(C)noc2C)cc1N(CCCOC1CN(c2cc3c(cc2F)CN(C2CCC(=O)NC2=O)C3=O)C1)c1ccc(C2(C#N)CC2)cc1` (stereo not shown) [Compound 123, 1-(4-((5-(3,5-dimethylisoxazol-4-yl)-2-methylphenyl)(3-((1-(2-(2,6-dioxopiperidin-3-yl)-6-fluoro-3-oxoisoindolin-5-yl)azetidin-3-yl)oxy)propyl)amino)phenyl)cyclopropane-1-nitrile], the IC50 in the test with LNCaP/AR cells (144 h) and in the test with 22RV1 cells (Homo sapiens) was 501 to 2000 nM throughout. Also, in the test on Androgen receptor (AR), the “AR (% degradation)” value was “D (<20% of the target protein was degraded)”. In addition, the “BRD4 (% degradation)” value at BRD4 is recorded as “C (49%-20% of the target protein was degraded)”.

As to `Cc1ccc(-c2c(C)noc2C)cc1N(CCCOC1CN(c2cc3c(cc2F)C(=O)N(C2CCC(=O)NC2=O)C3)C1)c1ccc(C2(C#N)CC2)cc1` (stereo not shown) [Compound 124, 1-(4-((5-(3,5-dimethylisoxazol-4-yl)-2-methylphenyl)(3-((1-(2-(2,6-dioxopiperidin-3-yl)-6-fluoro-1-oxoisoindolin-5-yl)azetidin-3-yl)oxy)propyl)amino)phenyl)cyclopropane-1-nitrile], the IC50 is 101 to 500 nM in the test with LNCaP/AR cells (144 h) and under 100 nM in the test with 22RV1 cells (Homo sapiens). For the same compound, the “AR (% degradation)” value in the test with Androgen receptor (AR) is reported as “B (79%-50% of the target protein was degraded)”. In addition, at BRD4, the “BRD4 (% degradation)” value is given as “B (79%-50% of the target protein was degraded)”.

`Cc1ccc(-c2c(C)noc2C)cc1N(CC1CCN(c2cc3c(cc2F)CN(C2CCC(=O)NC2=O)C3=O)CC1)c1ccc(C2(C#N)CC2)cc1` (stereo not shown) [Compound 127, 1-(4-((5-(3,5-dimethylisoxazol-4-yl)-2-methylphenyl)((1-(2-(2,6-dioxopiperidin-3-yl)-6-fluoro-3-oxoisoindolin-5-yl)piperidin-4-yl)methyl)amino)phenyl)cyclopropane-1-nitrile]: the IC50 with LNCaP/AR cells (144 h) and in the test on 22RV1 cells (Homo sapiens) was 101 to 500 nM each time. Moreover, the “AR (% degradation)” value in the test on Androgen receptor (AR) is reported as “D (<20% of the target protein was degraded)”. The “BRD4 (% degradation)” value at BRD4 was “B (79%-50% of the target protein was degraded)”.

For the compound `Cc1ccc(-c2c(C)noc2C)cc1N(CC1CCN(c2cc3c(cc2F)C(=O)N(C2CCC(=O)NC2=O)C3)CC1)c1ccc(C2(C#N)CC2)cc1` (stereo not shown) [Compound 128, 1-(4-((5-(3,5-dimethylisoxazol-4-yl)-2-methylphenyl)((1-(2-(2,6-dioxopiperidin-3-yl)-6-fluoro-1-oxoisoindolin-5-yl)piperidin-4-yl)methyl)amino)phenyl)cyclopropane-1-nitrile], the IC50 fell in the range of 501 to 2000 nM in the test with LNCaP/AR cells (144 h) and 101 to 500 nM in the test on 22RV1 cells (Homo sapiens). In addition, the “AR (% degradation)” value in the test on Androgen receptor (AR) was “D (<20% of the target protein was degraded)”. Also, on BRD4, the “BRD4 (% degradation)” value is recorded as “C (49%-20% of the target protein was degraded)”.

Regarding `Cc1ccc(-c2c(C)noc2C)cc1N(CCC1CN(c2cc3c(cc2F)C(=O)N(C2CCC(=O)NC2=O)C3=O)C1)c1ccc(C2(C#N)CC2)cc1` (stereo not shown) [Compound 129, 1-(4-((5-(3,5-Dimethylisoxazol-4-yl)-2-methylphenyl)(2-(1-(2-(2,6-dioxopiperidin-3-yl)-6-fluoro-1,3-dioxoisoindolin-5-yl)azetidin-3-yl)ethyl)amino)phenyl)cyclopropane-1-carbonitrile], the IC50 was 101 to 500 nM in the test on LNCaP/AR cells (144 h) and under 100 nM in the test with 22RV1 cells (Homo sapiens). In addition, the “AR (% degradation)” value in the test with Androgen receptor (AR) was “C (49%-20% of the target protein was degraded)”. Also, the “BRD4 (% degradation)” value on BRD4 is reported as “B (79%-50% of the target protein was degraded)”.

As to `Cc1ccc(-c2c(C)noc2C)cc1N(C[C@H]1CC[C@H](CNc2cc3c(cc2F)C(=O)N(C2CCC(=O)NC2=O)C3=O)CC1)c1ccc(C#N)c(Cl)c1` (stereo partly shown) [Compound 131], the IC50 in the test on LNCaP/AR cells and in the test on 22RV1 cells was under 100 nM each time. Further, in the test on Androgen receptor (AR), the “AR (% degradation)” value is on record as “C (49%-20% of the target protein was degraded)”. Moreover, the “BRD4 (% degradation)” value on BRD4 is given as “A (>80% of the target protein was degraded)”.

For the compound `Cc1ccc(-c2c(C)noc2C)cc1N(C[C@H]1CC[C@H](CNc2cc3c(cc2F)C(=O)N(C2CCC(=O)NC2=O)C3)CC1)c1ccc(C#N)c(Cl)c1` (stereo partly shown) [Compound 135], the IC50 in the test with LNCaP/AR cells and in the test on 22RV1 cells was under 100 nM in each case. The “AR (% degradation)” value in the test on Androgen receptor (AR) is reported as “C (49%-20% of the target protein was degraded)”. The “BRD4 (% degradation)” value at BRD4 is listed as “A (>80% of the target protein was degraded)”.

For `Cc1ccc(-c2c(C)noc2C)cc1N(CC1(COC2CN(c3ccc4c(c3)C(=O)N(C3CCC(=O)NC3=O)C4=O)C2)CC1)c1ccc(C2(C#N)CC2)cc1` (stereo not shown) [Compound 137, 1-(4-((5-(3,5-Dimethylisoxazol-4-yl)-2-methylphenyl)((1-(((1-(2-(2,6-dioxopiperidin-3-yl)-1,3-dioxoisoindolin-5-yl)azetidin-3-yl)oxy)methyl)cyclopropyl)methyl)amino)phenyl)cyclopropane-1-nitrile], the IC50 in the test on LNCaP/AR cells (144 h) and in the test on 22RV1 cells (Homo sapiens) was over 2000 nM throughout. Moreover, in the test on Androgen receptor (AR), the “AR (% degradation)” value was “C (49%-20% of the target protein was degraded)”. The “BRD4 (% degradation)” value on BRD4 is given as “B (79%-50% of the target protein was degraded)”.

As for `Cc1ccc(-c2c(C)noc2C)cc1N(CCCOC1(C)CN(c2ccc3c(c2)C(=O)N(C2CCC(=O)NC2=O)C3=O)C1)c1ccc(C2(C#N)CC2)cc1` (stereo not shown) [Compound 140], the IC50 in the test on LNCaP/AR cells (144 h) fell in the range of 501 to 2000 nM; in the test on 22RV1 cells (Homo sapiens), 101 to 500 nM. In addition, in the test with Androgen receptor (AR), the “AR (% degradation)” value is listed as “D (<20% of the target protein was degraded)”. Moreover, the “BRD4 (% degradation)” value on BRD4 is given as “C (49%-20% of the target protein was degraded)”.

Turning to `Cc1ccc(-c2c(C)noc2C)cc1N(C[C@H]1CC[C@H](CNc2ccc3c(c2)C(=O)N(C2CCC(=O)NC2=O)C3=O)CC1)c1ccc(C2(C#N)CC2)cc1` (stereo partly shown) [Compound 149], the IC50 in the test with LNCaP/AR cells (144 h) and in the test on 22RV1 cells (Homo sapiens) was under 100 nM in each case. For the same compound, in the test on Androgen receptor (AR), the “AR (% degradation)” value is given as “A (>80% of the target protein was degraded)”. Further, at BRD4, the “BRD4 (% degradation)” value was “A (>80% of the target protein was degraded)”.

For `Cc1ccc(-c2c(C)noc2C)cc1N(CC1CN(C2CN(c3cc4c(cc3F)C(=O)N(C3CCC(=O)NC3=O)C4)C2)C1)c1ccc(C2(C#N)CC2)cc1` (stereo not shown) [Compound 157], the IC50 in the test on LNCaP/AR cells (144 h) and in the test on 22RV1 cells (Homo sapiens) was under 100 nM each time. Besides, the “AR (% degradation)” value in the test with Androgen receptor (AR) is reported as “B (79%-50% of the target protein was degraded)”. In addition, the “BRD4 (% degradation)” value on BRD4 is “A (>80% of the target protein was degraded)”.

`Cc1ccc(-c2c(C)noc2C)cc1N(CC1CCN(C2CN(c3cc4c(cc3F)CN(C3CCC(=O)NC3=O)C4=O)C2)CC1)c1ccc(C2(C#N)CC2)cc1` (stereo not shown) [Compound 159]: the IC50 in the test on LNCaP/AR cells (144 h) and in the test on 22RV1 cells (Homo sapiens) was under 100 nM throughout. Besides, the “AR (% degradation)” value in the test on Androgen receptor (AR) is “C (49%-20% of the target protein was degraded)”. In addition, the “BRD4 (% degradation)” value at BRD4 was “B (79%-50% of the target protein was degraded)”.

Values taken from patent US20220257774A1, “AROMATIC AMINE AR AHD BET TARGETING PROTEIN DEGRADATION CHIMERA COMPOUND AND USE” (HINOVA PHARMACEUTICALS INC., priority 2019, published 2022).
